These results are taken from ChEMBL document CHEMBL5252641, “Design, synthesis, and evaluation of benzofuran-based chromenochalcones for antihyperglycemic and antidyslipidemic activities” (RSC Med Chem, 2023).

Calls of active or inactive are those of the source. No cut-off for these calls is given here.

Data set [1] is filed under the species Mus musculus. The data set is described as follows: Antidyslipidemic activity in db/db mouse assessed as increase in serum HDL-cholesterol level measured after 15 days relative to control. The conditions noted are these: time 15 day. The class given is functional.
Data set [2] relates to Syrian golden hamster. The experiment in a line: Antidyslipidemic activity in Triton-induced hyperlipidemic Syrian golden hamster model assessed as decrease in total cholesterol level at 50 mg/kg measured after 18 hrs. The class given is functional, Mesocricetus auratus. Also on record: scale not given: the % may be the effect or the level left.
The subject of data set [3] is Rattus norvegicus. The data set is described as follows: Antidiabetic activity in streptozotocin induced hyperglycemic Wistar rat model assessed as improvement in blood glucose level at 100 mg/kg,po measured upto 5 hrs relative to control. The class given is functional.
The species entered for data set [4] is Mus musculus. The experiment in a line: Antidyslipidemic activity in db/db mouse assessed as decrease in serum cholesterol level measured after 15 days relative to control. The class given is functional. The conditions noted are these: time 15 day. Also on record: scale not given: the % may be the effect or the level left.
The test system of data set [5] is Syrian golden hamster. The data set is described as follows: Antidyslipidemic activity in Triton-induced hyperlipidemic Syrian golden hamster model assessed as increase in post-heparin lipolytic activity at 50 mg/kg measured after 18 hrs. The class given is functional, Mesocricetus auratus.
Data set [6] concerns Rattus norvegicus. The data set is described as follows: Antidiabetic activity in streptozotocin induced hyperglycemic Wistar rat model assessed as improvement in blood glucose level at 100 mg/kg,po measured upto 24 hrs relative to control. The class given is functional.
The test system of data set [7] is L6. The experiment in a line: Induction of GLUT4myc translocation to rat L6 cells surface measured after 16 hrs by colorimetric assay. The class given is functional, cell-based. The conditions noted are these: dose 5-25 µM.
The subject of data set [8] is Mus musculus. The data set is described as follows: Antidiabetic activity in db/db mouse assessed as decrease in rise of postprandial hyperglycemia at 30 mg/kg measured after 15 days post glucose challenge by oral glucose tolerance test relative to control. The class given is functional. Also on record: scale not given: the % may be the effect or the level left. The conditions noted are these: time 15 day.

For data set [9], the species on record is Mus musculus. The experiment in a line: Antidyslipidemic activity in db/db mouse assessed as decrease in serum triglyceride level measured after 15 days relative to control. The class given is functional. Also on record: scale not given: the % may be the effect or the level left. The conditions noted are these: time 15 day.
The species entered for data set [10] is Mus musculus. The data set is described as follows: Antidiabetic activity in db/db mouse assessed as increase in Akt phosphorylation incubated for 15 mins by Western blot analysis. The class given is functional, organism-based.
The species entered for data set [11] is Mus musculus. The experiment in a line: Antidiabetic activity in db/db mouse assessed as increase in GLUT4 level incubated for 15 mins by Western blot analysis. The class given is functional, organism-based.
Data set [12] deals with L6. The experiment in a line: Induction of glucose uptake in rat L6 cells expressing GLUT4 myc epitopes at 10 uM incubated for 24 hrs by scintillation counting method relative to control. The class given is functional.
Data set [13] deals with L6. The experiment in a line: Induction of insulin stimulated glucose uptake in rat L6 cells expressing GLUT4 myc epitopes at 10 uM preincubated for 16 hrs followed by 3 hrs incubation under serum deprived medium prior to insulin stimulation for 20 mins. The class given is functional, cell-based. The conditions noted are these: time 1160.0 min.
Data set [14] in a line: Antioxidant activity assessed as hydroxyl radical scavenging activity at 100 uM incubated for 90 mins by spectrophotometric analysis. The class given is functional.
For data set [15], the system named is L6. The data set is described as follows: Induction of GLUT4myc translocation to rat L6 cells surface at 5 to 25 uM incubated for 20 mins followed by insulin stimulation by colorimetric assay. The class given is functional, cell-based. The conditions noted are these: dose 5-25 µM.
The subject of data set [16] is Syrian golden hamster. The experiment in a line: Antidyslipidemic activity in Triton-induced hyperlipidemic Syrian golden hamster model assessed as decrease in PL level at 50 mg/kg measured after 18 hrs. The class given is functional, Mesocricetus auratus. Also on record: scale not given: the % may be the effect or the level left.
Data set [17] has as its system L6. The data set is described as follows: Induction of glucose uptake in rat L6 cells expressing GLUT4 myc epitopes at 5 uM incubated for 24 hrs by scintillation counting method relative to control. The class given is functional.
Data set [18] has as its system Mus musculus. The experiment in a line: Antidiabetic activity in db/db mouse assessed as decrease in postprandial blood glucose at 30 mg/kg measured after 9 days. The class given is functional, organism-based. The conditions noted are these: time 9.0 day.
The subject of data set [19] is Mus musculus. The data set is described as follows: Antidiabetic activity in db/db mouse assessed as decrease in rise of postprandial hyperglycemia at 30 mg/kg measured after 10 days post glucose challenge by oral glucose tolerance test relative to control. The class given is functional. Also on record: scale not given: the % may be the effect or the level left. The conditions noted are these: time 10 day.

Data set [20] concerns Mus musculus. The data set is described as follows: Antidiabetic activity in db/db mouse assessed as decrease in serum insulin levels at 30 mg/kg administered for 15 consecutive days by oral glucose tolerance test relative to control. The class given is functional. Also on record: scale not given: the % may be the effect or the level left. The conditions noted are these: time 15 day.

Data set [21] has as its system Mus musculus. The experiment in a line: Antidiabetic activity in db/db mouse assessed as decrease in HOMA index at 30 mg/kg administered for 15 consecutive days by oral glucose tolerance test relative to control. Also on record: scale not given: the % may be the effect or the level left. The conditions noted are these: time 15 day. The class given is functional.
Data set [22] has as its system Mus musculus. The data set is described as follows: Antidiabetic activity in db/db mouse assessed as decrease in fasting blood glucose level at 30 mg/kg administered for 15 consecutive days by oral glucose tolerance test relative to control. Also on record: scale not given: the % may be the effect or the level left. The conditions noted are these: time 15 day. The class given is functional.

Data set [23] is filed under the species Mus musculus. The data set is described as follows: Antidyslipidemic activity in db/db mouse assessed as effect on body weight measured after 9 days. The conditions noted are these: time 9.0 day. The class given is functional, organism-based.
For data set [24], the system named is Syrian golden hamster. The experiment in a line: Antidyslipidemic activity in Triton-induced hyperlipidemic Syrian golden hamster model assessed as increase in lecithin-cholesterol acyltransferase level at 50 mg/kg measured after 18 hrs. The class given is functional, Mesocricetus auratus.
Data set [25] relates to L6. The data set is described as follows: Cytotoxicity against rat L6 cells assessed as reduction in cell viability at 5 to 100 uM incubated overnight by MTT assay. The class given is toxicity, cell-based. The conditions noted are these: l6, 100 µM, dose 5-100 µM.
Data set [26] deals with Syrian golden hamster. The data set is described as follows: Antidyslipidemic activity in Triton-induced hyperlipidemic Syrian golden hamster model assessed as decrease in triglyceride level at 50 mg/kg measured after 18 hrs. The class given is functional, Mesocricetus auratus. Also on record: scale not given: the % may be the effect or the level left.
Data set [27] can be described thus: Antioxidant activity assessed as superoxide anion radical scavenging activity at 100 uM incubated for 30 mins by spectrophotometric analysis. The class given is functional.
Data set [28] relates to L6. The data set is described as follows: Cytotoxicity against rat L6 cells assessed as reduction in cell viability at 10 uM by MTT assay. The class given is toxicity, cell-based. The conditions noted are these: l6, 10 µM.

`CC1(C)C=Cc2ccc(O)c(C(=O)/C=C/c3ccc4oc(C(=O)c5ccccc5)cc4c3)c2O1`: the Activity is recorded as 45.2% in the data set filed under Mus musculus [1]; 21% in the data set with Syrian golden hamster [2]; 22.8% in the data set on Rattus norvegicus [3]; 21% in the data set filed under Mus musculus [4]; 24% in the data set on Syrian golden hamster [5]; 25.1% in the data set with Rattus norvegicus [6]. Further, the Activity result in the data set on L6 [7] was “Dose-Dependent Effect”; in the data set with Mus musculus [8], 29.1%; in the data set filed under Mus musculus [9], 26.5%; with L6 [12], 249%; in [14] it was 16; in the data set with Syrian golden hamster [16] it was 24%. Further, the Activity in the data set with L6 [17] was determined as 82%; with Mus musculus [19] it was 18.2%; in the data set with Mus musculus [20], 23.8%; in the data set with Mus musculus [21] it was 39.8%; in the data set on Mus musculus [22], 25%; with Syrian golden hamster [24], 18%. Also, the results for the Activity result (in the data set on L6 [25]; in the data set on Syrian golden hamster [26]; in data set [27]) were “Non-Toxic”, 18% and 18, respectively. The result in the data set listed under Mus musculus [10], in the data set listed under Mus musculus [11], in the data set with L6 [15], in the data set with Mus musculus [18] and in the data set listed under Mus musculus [23] was Active. Also, the outcome with L6 [13] was inactive.
As to `COc1ccc(C(=O)c2cc3cc(/C=C/C(=O)c4c(O)ccc5c4OC(C)(C)C=C5)ccc3o2)cc1`, the Activity with Syrian golden hamster [2] was 10%; with Rattus norvegicus [3], 18.7%; in the data set on Syrian golden hamster [5] it was 17%; in the data set on Rattus norvegicus [6] it was 16.8%; with L6 [7], “Dose-Dependent Effect”; with L6 [12], 220.5%. Further, the Activity in [14] is 7; with Syrian golden hamster [16], 11%; in the data set on L6 [17], 93%; in the data set with Syrian golden hamster [24], 12%; with L6 [25], “Non-Toxic”; with Syrian golden hamster [26], 13%. Further, in [27], the Activity is 10. For the same compound, in the data set on L6 [13], the outcome was inactive. Further, the outcome in the data set on L6 [15] was Active.
Consider `CC1(C)C=Cc2ccc(O)c(C(=O)/C=C/c3ccc4occc4c3)c2O1`, for which the Activity result is “Toxic” with L6 [28]; 14% in the data set on Syrian golden hamster [2]; 21% in the data set with Syrian golden hamster [5]; 15 in data set [14]; 19% in the data set with Syrian golden hamster [16]; 18% in the data set with Syrian golden hamster [24]. The Activity with Syrian golden hamster [26] worked out at 11%; in data set [27], 18.
